The target of data set [1] is T1, full-length human HDAC11 (Homo sapiens (Human), UniProt Q96DB2). Description: HDAC11 deacetylase electrophoretic mobility shift assay (Nanosyn). It counts as biochemical. Particulars: for IC50: mobility shift assay; for HDAC11 potency, in words: comparison with parent or lead compound. How it is done:
The measurement of HD AC 11 deacetylase activity was performed using an electrophoretic mobility shift assay by Nanosyn (Santa Clara, Calif.). Full length human recombinant HD AC 11 protein was expressed in baculoviral system and purified by affinity chromatography. The enzymatic reactions were assembled in 384 well plates in a total volume of 25 μL in a reaction buffer composing: 100 mM HEPES, pH 7.5, 25 mM KCl, 0.1% bovine serum albumin, 0.01% Triton X-100, 1% DMSO (from compounds), 2 μM of the fluorescently labeled peptide substrate and enzyme. The enzyme was added at a final concentration of 10 nM. The peptide substrate FAM-RHKK(tri-fluor-Ac)—NH2 was used. The compounds were tested at 12 concentrations spaced by 3× dilution intervals. Negative control samples (0%-inhibition in the absence of inhibitor) and positive control samples (100%-inhibition) were assembled in replicates of four in each assay plate. The reactions were incubated at 25° C. and quenched by the addition of 45 μL of termination buffer (100 mM HEPES, pH 7.5, 0.01% Triton X-100, 0.05% SDS).
The terminated assay plates were analyzed on LabChip® 3000 microfluidic electrophoresis instrument (Perkin Elmer/Caliper Life Sciences). The fluorescence intensity of the electrophoretically separated de-acetylated product and substrate peptide was measured. Activity in each sample was determined as the product to sum ratio (PSR): P/(S+P), where P is the peak height of the product peptide and S is the peak height of the substrate peptide. Percent inhibition (Pinh) is determined using the following equation: Pinh=(PSR0%−PSRinh)/(PSR0%−PSR100%)*100, where PSRinh, is the product sum ratio in the presence of inhibitor, PSR0% is the average product sum ration in the absence of inhibitor and PSR100% is the average product sum ratio in 100%-inhibition control samples. The IC50 values of inhibitors were determined by fitting the percent inhibition curves with 4 parameter dose-response model using XLfit 4 software.
(In general: Mobility shift assays separate free from complexed probe on a gel.)

Data set [2] deals with HDAC11 (Homo sapiens (Human), UniProt Q96DB2). Description: Lipophilic efficiency (pIC50 HDAC11 - clogD7.4).
Data set [3] deals with HDAC11 fused to Nanoluc luciferase (Homo sapiens (Human), UniProt Q96DB2). In words: BRET target engagement cell assay. For orientation: In BRET a luciferase serves as donor, and the signal depends on an acceptor being close.
The target in data set [4] is T1, full-length human HDAC11. In words: Probe binding HDAC11 time resolved fluorescence (TRF) assay. Particulars: Table 2, read-out: HDAC11 IC50 Range.
Data set [5] is described as follows: In vitro intrinsic clearance after incubation with mouse liver microsomes. In kind it is in vitro ADME. A general note: Liver microsomes are a subcellular fraction often used to study metabolism.
Data set [6] can be described thus: Kinetic solubility at pH 7.4. It counts as physicochemical. Particulars: aqueous buffer, kinetic from dmso stock.
Data set [7] deals with HDAC6 (Homo sapiens (Human), UniProt Q9UBN7). In words: HDAC6 electrophoretic mobility shift assay. In kind it is biochemical. To be noted: for IC50: mobility shift assay.
The target in data set [8] is HDAC5 (Homo sapiens (Human), UniProt Q9UQL6). Description: HDAC5 electrophoretic mobility shift assay. In kind it is biochemical. To be noted: Table 7, read-out: HDAC IC50, HDAC 5.
The target of data set [9] is HDAC9 (Homo sapiens (Human), UniProt Q9UKV0). In words: HDAC9 electrophoretic mobility shift assay. Particulars: Table 7, read-out: HDAC IC50, HDAC 9. In kind it is biochemical.
Data set [10] can be described thus: Mouse pharmacokinetic study (i.v. and i.p.). It counts as in vivo. The method, then: Based on its overall in vitro profile, 22-8 was advanced to mouse PK studies to measure its suitability as an in vivo tool compound. The pharmacokinetic properties of 22-8 were assessed in male Balb/c nude mice following both intravenous (i.v.) and intraperitoneal (i.p.) dosing (Table 8).

Data set [11] concerns the target HDAC7 (Homo sapiens (Human), UniProt Q8WUI4). In words: HDAC7 electrophoretic mobility shift assay. It counts as biochemical. Particulars: Table 7, read-out: HDAC IC50, HDAC 7.
The mark [12] stands for this setting: pIC50 HDAC11 - clogD7.4, Table 6.
Where [13] appears, read: read-out: HDAC11 BRET IC50, BRET cell assay, Table 6.
Setting [14] is: pIC50 HDAC11 - clogD7.4, Table 4.
The mark [15] stands for this setting: IP 5 mg/kg, male Balb/c nude mice.
The mark [16] stands for this setting: mouse, in vivo, IP 5 mg/kg, male Balb/c nude mice.
Setting [17] is: mouse, in vivo, IV 1 mg/kg, male Balb/c nude mice.

Converted amounts (≈) assume the structure as drawn. Where two headings read alike, the source gives them in different places. A value given as a limit tells only on which side of the number the result lay.

HDAC6, sequence (Q9UBN7 whole entry, species assumed): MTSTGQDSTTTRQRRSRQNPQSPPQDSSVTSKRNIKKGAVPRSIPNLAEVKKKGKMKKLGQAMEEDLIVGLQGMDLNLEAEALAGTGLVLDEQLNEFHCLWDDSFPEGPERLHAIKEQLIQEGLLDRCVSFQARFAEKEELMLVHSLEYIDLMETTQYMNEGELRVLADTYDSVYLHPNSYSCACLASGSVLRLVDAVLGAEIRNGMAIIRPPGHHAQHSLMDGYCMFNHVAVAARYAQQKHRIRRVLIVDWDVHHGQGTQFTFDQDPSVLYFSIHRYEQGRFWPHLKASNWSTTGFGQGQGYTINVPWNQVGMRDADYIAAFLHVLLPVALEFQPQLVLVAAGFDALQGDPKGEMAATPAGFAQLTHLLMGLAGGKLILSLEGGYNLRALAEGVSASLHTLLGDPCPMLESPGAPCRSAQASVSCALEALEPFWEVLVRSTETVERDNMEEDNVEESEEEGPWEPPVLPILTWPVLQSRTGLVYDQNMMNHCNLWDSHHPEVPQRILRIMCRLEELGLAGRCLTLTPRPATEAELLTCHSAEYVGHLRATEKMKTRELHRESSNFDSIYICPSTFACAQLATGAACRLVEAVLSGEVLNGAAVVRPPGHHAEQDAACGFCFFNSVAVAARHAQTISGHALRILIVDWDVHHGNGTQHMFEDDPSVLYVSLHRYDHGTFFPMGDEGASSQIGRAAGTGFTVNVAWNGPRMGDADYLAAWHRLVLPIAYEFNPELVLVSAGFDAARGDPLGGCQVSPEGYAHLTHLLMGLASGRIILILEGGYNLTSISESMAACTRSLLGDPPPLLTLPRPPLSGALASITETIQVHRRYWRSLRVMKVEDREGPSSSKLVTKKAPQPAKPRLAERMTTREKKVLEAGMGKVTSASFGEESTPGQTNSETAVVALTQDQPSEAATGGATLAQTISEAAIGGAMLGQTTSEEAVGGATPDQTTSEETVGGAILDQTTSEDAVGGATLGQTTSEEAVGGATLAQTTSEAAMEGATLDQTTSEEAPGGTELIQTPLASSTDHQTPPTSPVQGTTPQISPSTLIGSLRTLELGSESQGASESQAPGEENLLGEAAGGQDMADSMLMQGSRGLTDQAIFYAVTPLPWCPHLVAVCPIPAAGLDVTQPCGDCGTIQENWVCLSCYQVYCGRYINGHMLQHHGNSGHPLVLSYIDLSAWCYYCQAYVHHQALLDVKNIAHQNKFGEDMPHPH
HDAC11, sequence (Q96DB2 whole entry, the tested form may be a part): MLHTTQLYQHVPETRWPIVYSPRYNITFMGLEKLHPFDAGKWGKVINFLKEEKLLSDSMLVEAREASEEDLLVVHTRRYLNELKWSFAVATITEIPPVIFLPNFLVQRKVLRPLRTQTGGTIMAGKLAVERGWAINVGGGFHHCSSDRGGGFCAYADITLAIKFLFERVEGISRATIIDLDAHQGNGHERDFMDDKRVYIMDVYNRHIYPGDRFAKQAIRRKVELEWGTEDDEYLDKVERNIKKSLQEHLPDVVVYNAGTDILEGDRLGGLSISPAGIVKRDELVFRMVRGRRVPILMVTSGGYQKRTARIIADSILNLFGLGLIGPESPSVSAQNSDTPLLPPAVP
HDAC11 fused to Nanoluc luciferase, sequence (Q96DB2 whole entry, the tested form may be a part): as above
T1 sequence (Q96DB2 whole entry): as the sequence (Q96DB2 whole entry, the tested form may be a part) above
HDAC7, sequence (Q8WUI4 whole entry): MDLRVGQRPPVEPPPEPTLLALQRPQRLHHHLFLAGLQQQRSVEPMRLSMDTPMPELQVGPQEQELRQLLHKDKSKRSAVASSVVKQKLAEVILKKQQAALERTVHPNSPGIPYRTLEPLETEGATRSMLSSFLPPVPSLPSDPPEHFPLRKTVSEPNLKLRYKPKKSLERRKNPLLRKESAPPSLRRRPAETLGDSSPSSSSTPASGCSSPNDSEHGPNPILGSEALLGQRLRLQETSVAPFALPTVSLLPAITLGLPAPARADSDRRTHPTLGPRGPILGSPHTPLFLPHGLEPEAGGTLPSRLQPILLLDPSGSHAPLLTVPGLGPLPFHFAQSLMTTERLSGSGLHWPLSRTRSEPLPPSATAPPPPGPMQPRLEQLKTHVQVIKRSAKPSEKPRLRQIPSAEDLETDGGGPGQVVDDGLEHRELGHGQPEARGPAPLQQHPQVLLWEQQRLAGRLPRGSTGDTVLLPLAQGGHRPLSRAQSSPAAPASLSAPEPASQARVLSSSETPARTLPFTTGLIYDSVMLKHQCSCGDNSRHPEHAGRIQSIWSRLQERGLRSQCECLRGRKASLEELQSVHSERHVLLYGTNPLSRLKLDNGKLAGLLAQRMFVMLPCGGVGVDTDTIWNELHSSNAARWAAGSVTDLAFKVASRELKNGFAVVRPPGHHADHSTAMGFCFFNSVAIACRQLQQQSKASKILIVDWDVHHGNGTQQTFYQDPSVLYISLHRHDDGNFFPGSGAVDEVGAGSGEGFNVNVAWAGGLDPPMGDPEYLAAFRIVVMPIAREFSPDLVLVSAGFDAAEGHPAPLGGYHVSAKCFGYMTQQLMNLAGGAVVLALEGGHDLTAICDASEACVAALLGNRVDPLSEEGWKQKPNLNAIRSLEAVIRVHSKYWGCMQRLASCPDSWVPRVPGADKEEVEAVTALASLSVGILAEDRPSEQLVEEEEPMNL
HDAC9, sequence (Q9UKV0 whole entry): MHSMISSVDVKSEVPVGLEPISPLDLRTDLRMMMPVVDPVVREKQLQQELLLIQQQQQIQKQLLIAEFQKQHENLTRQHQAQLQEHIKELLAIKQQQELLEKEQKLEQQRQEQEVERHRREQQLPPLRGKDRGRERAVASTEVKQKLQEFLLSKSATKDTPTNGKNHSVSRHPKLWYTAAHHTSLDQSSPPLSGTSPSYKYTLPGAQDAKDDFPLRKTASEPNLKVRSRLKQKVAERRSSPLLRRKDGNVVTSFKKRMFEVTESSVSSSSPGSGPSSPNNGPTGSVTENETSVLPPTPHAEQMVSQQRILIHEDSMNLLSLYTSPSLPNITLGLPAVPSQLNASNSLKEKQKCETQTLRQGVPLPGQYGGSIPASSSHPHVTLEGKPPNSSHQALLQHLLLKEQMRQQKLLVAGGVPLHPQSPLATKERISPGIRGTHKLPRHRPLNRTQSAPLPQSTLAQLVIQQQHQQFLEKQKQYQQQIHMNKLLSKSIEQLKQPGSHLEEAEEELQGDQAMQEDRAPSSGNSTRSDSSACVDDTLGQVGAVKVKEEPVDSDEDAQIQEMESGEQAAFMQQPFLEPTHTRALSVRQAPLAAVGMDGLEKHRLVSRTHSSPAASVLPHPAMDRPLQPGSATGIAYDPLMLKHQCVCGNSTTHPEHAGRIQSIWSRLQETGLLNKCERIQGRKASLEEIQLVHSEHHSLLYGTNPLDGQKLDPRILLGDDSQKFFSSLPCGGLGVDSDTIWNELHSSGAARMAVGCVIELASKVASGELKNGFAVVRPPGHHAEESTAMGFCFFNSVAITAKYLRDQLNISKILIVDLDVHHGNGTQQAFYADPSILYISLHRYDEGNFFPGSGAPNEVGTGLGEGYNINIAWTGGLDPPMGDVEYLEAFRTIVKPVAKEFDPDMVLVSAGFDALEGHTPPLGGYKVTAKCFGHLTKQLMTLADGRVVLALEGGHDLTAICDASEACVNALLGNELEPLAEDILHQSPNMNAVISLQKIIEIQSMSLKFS
HDAC5, sequence (Q9UQL6 whole entry): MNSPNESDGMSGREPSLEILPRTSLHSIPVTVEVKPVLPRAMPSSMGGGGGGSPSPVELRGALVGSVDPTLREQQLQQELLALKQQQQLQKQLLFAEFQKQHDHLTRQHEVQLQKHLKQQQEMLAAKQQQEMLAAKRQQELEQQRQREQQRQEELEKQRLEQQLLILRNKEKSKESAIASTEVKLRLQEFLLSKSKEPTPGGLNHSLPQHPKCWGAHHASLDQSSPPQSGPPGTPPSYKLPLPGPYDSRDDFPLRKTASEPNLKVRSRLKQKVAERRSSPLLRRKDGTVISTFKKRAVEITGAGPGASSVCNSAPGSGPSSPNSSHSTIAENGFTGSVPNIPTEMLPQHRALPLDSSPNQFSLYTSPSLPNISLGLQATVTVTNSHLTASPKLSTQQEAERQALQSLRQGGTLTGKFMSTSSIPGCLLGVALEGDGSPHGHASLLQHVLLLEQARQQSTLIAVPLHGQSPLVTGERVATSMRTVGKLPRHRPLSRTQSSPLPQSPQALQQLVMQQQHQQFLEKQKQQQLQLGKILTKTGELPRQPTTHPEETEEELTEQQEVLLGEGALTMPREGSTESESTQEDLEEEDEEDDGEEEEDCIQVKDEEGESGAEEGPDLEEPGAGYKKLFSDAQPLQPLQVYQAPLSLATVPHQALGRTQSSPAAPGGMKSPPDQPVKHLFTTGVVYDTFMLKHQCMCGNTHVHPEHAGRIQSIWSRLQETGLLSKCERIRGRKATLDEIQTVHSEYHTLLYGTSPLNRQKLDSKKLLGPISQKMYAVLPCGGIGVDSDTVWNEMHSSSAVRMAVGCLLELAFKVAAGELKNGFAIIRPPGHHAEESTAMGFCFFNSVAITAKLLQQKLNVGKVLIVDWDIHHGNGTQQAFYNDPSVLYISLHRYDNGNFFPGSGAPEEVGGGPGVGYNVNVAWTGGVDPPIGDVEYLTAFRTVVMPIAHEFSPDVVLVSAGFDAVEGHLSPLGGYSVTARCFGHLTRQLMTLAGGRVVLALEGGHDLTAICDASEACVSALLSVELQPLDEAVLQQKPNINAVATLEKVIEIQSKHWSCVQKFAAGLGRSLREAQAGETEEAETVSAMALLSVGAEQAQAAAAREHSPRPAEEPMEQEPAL

In the case of `CC1(C)c2cccc(C(=O)NO)c2CN1c1cnc(C(F)(F)F)nc1` [Compound 22-7, N-hydroxy-1,1-dimethyl-2-(2-(trifluoromethyl)pyrimidin-5-yl)isoindoline-4-carboxamide], the IC50 in [1] (Table 6, read-out: HDAC11 IC50) was less than 500 nM; in data set [3] (setting [13]), less than 500 nM; in [4], less than 500 nM. The LipE result in [2] (setting [12]) was “++ (indicates 5.5<LipE≤6.5)”. In addition, in [5] (Table 6), the microsomal CLint is less than 50 µL/min/mg. In addition, the solubility in [6] is greater than 55 µM.
On to `O=C(NO)c1cccc2c1CCN(c1nc3ccccc3[nH]1)C2` [Compound 50-2], for which, in data set [1], the “HDAC11 potency, in words” value is listed as “only modest HDAC11 activity”. Besides, the IC50 in data set [1] (Table 3, mean of at least two runs, read-out: HDAC 11 IC50) was 510 to 2000 nM; in [1] (Table 4, read-out: HDAC11 IC50), greater than 1000 nM; in [7] (Table 3, mean of at least two runs, read-out: HDAC 6 IC50), greater than 2000 nM; in data set [7] (Table 4, read-out: HDAC6 IC50) it was greater than 1000 nM. Further, the LipE entry in data set [2] (setting [14]) is given as “+ (indicates LipE≤5.5)”. The “HDAC6 potency, in words” value in data set [7] (text comparison with lead 50-4) is recorded as “no significant HDAC6 potency”. Further, in data set [5] (Table 4, read-out: m-CL-int), the microsomal CLint was less than 50 µL/min/mg.
Consider `CC1(C)c2cccc(C(=O)NO)c2CN1c1ccc(C(F)(F)F)nc1` [Compound 22-3, N-hydroxy-1,1-dimethyl-2-(6-(trifluoromethyl)pyridin-3-yl)isoindoline-4-carboxamide], for which the IC50 is less than 500 nM in data set [1] (Table 6, read-out: HDAC11 IC50); less than 20 nM in data set [3]; less than 500 nM in data set [3] (setting [13]); less than 500 nM in [4]. Further, in data set [2] (setting [12]), the LipE entry is on record as “++ (indicates 5.5<LipE≤6.5)”. The compound further returned a microsomal CLint in data set [5] (Table 6) of less than 50 µL/min/mg. This compound also displayed a solubility in data set [6] of 30 to 55 µM (≈ 10.5 to 19.3 µg/mL).
As to `CC1(C)c2cccc(C(=O)NO)c2CN1c1ncc(C(F)(F)F)cn1` [Compound 22-6, N-hydroxy-1,1-dimethyl-2-(5-(trifluoromethyl)pyrimidin-2-yl)isoindoline-4-carboxamide], the IC50 was less than 500 nM in data set [1] (Table 6, read-out: HDAC11 IC50); less than 500 nM in [3] (setting [13]); less than 500 nM in data set [4]. In data set [2] (setting [12]), the LipE entry is recorded as “++ (indicates 5.5<LipE≤6.5)”. This compound also registered a microsomal CLint in data set [5] (Table 6) of less than 50 µL/min/mg. Also, the solubility in data set [6] fell in the range of 30 to 55 µM (≈ 10.6 to 19.4 µg/mL).
With `CC1(C)c2cccc(C(=O)NO)c2CN1c1cnc(C(F)(F)F)cn1` [Compound 22-8, N-Hydroxy-1,1-dimethyl-2-(5-(trifluoromethyl)pyrazin-2-yl)isoindoline-4-carboxamide], the IC50 in data set [8] was greater than 1000 nM. For the same compound, the IC50 in data set [9] was greater than 1000 nM. In data set [10] (setting [15]), this compound came in with a Bioavailability of 81 % F and a t1/2 of 10.2 h. The compound further returned a t1/2 in data set [10] (IV 1 mg/kg, male Balb/c nude mice) of 9.4 h. Further, in data set [10] (setting [16]), the AUC(0-t) was found to be 3.8 µM·h, the Cmax turned out to be 4.2 µM and the half-life is 10.2 h. In [10] (setting [17]), this compound showed an AUC(0-t) of 1 µM·h, a C0 of 3.5 µM, a clearance of 42 mL/min/kg and a half-life of 9.4 h. Also, in data set [10] (mouse, in vivo, IV 1 mg/kg, male Balb/c nude mice, read-out: Vss), the Vd amounted to 18 L/kg. Further, the “time free drug levels maintained over the cellular IC50” value in data set [10] (single 5 mg/kg i.p. dose, mice) is listed as “up to 4 h”. In addition, the IC50 in [11] was greater than 1000 nM. This compound yielded a microsomal CLint in data set [5] (Table 6) of less than 50 µL/min/mg. This compound returned a solubility in data set [6] of 30 to 55 µM (≈ 10.6 to 19.4 µg/mL).
`CC1(C)c2cccc(C(=O)NO)c2CN1c1ccc(C(F)(F)F)cn1` [Compound 22-2, N-hydroxy-1,1-dimethyl-2-(5-(trifluoromethyl)pyridin-2-yl)isoindoline-4-carboxamide]: the IC50 is less than 500 nM in data set [1] (Table 6, read-out: HDAC11 IC50); less than 500 nM in data set [3] (setting [13]); less than 500 nM in data set [4]. Moreover, the LipE entry in data set [2] (setting [12]) is on record as “++ (indicates 5.5<LipE≤6.5)”. Moreover, the microsomal CLint in data set [5] (Table 6) is less than 50 µL/min/mg. The solubility in data set [6] is no more than 30 µM.
With `O=C(NO)c1cccc2c1CCN(c1nc3ccccc3[nH]1)CC2` [Compound 50-3], the IC50 in [1] (Table 4, read-out: HDAC11 IC50) was less than 500 nM; in [7] (Table 4, read-out: HDAC6 IC50), greater than 1000 nM. In addition, the “increase in potency against HDAC11” value in [1] (relative to the tetrahydroisoquinoline core) is greater than 10 fold. Moreover, the LipE result in [2] (setting [14]) is “+ (indicates LipE≤5.5)”. Besides, the microsomal CLint in data set [5] (Table 4, read-out: m-CL-int) was greater than 100 µL/min/mg.
Consider `CC1(C)c2cccc(C(=O)NO)c2CN1c1nc2ccc(C(F)(F)F)cc2[nH]1` [Compound 17-1, N-hydroxy-1,1-dimethyl-2-(6-(trifluoromethyl)-1H-benzo[d]imidazol-2-yl)isoindoline-4-carboxamide], for which the “HDAC11 potency, in words” value in [1] is “retained the potency”. The IC50 in [1] (Table 6, read-out: HDAC11 IC50) was less than 500 nM; in data set [4], less than 500 nM. In data set [2] (setting [12]), the LipE result is “++ (indicates 5.5<LipE≤6.5)”. The microsomal CLint in [5] (Table 6) is less than 50 µL/min/mg. The “microsomal stability, in words” value in [5] (comparison) is given as “significant increase in stability”. In data set [6], the solubility is 30 to 55 µM (≈ 11.7 to 21.5 µg/mL).
Turning to `CC1(C)c2cccc(C(=O)NO)c2CN1c1nc2ncccc2o1` [Compound 18-2, N-hydroxy-1,1-dimethyl-2-(oxazolo[4,5-b]pyridin-2-yl)isoindoline-4-carboxamide], the IC50 in [1] (Table 6, read-out: HDAC11 IC50) was less than 500 nM; in [3] (setting [13]), less than 500 nM; in data set [4] it was less than 500 nM. In addition, the LipE entry in data set [2] (setting [12]) is “+++ (indicates a LipE>6.5)”. The compound further showed a microsomal CLint in [5] (Table 6) of less than 50 µL/min/mg. In data set [6], this compound yielded a solubility greater than 55 µM.
With `CC1(C)c2cccc(C(=O)NO)c2CN1c1nc2cc(C(F)(F)F)ccc2o1` [Compound 18-1, N-hydroxy-1,1-dimethyl-2-[5-(trifluoromethyl)-1,3-benzoxazol-2-yl]-2,3-dihydro-1H-isoindole-4-carboxamide], the IC50 is less than 500 nM in [1] (Table 6, read-out: HDAC11 IC50) and less than 500 nM in [4]. In data set [2] (setting [12]), the LipE result is given as “++ (indicates 5.5<LipE≤6.5)”. For the same compound, in [5] (Table 6), the microsomal CLint is less than 50 µL/min/mg. Also, in [6], the solubility is no more than 30 µM.

The IC50 is the concentration that inhibits the measured activity by half. By solubility is commonly meant the dissolved amount per volume that the medium holds. Low readings indicate little dissolved substance, high ones much dissolved substance. The term AUC(0-t) denotes the area under the concentration-time curve up to a stated or last time point. A higher AUC(0-t) goes with high exposure. One may read the Cmax as the highest concentration seen after dosing. For orientation: half-life means how long it takes for the measured level to halve. A high value points to slow loss.

Values taken from patent publication US11535607B2, “Isoindolines as HDAC inhibitors” (Valo Health, Inc., priority 2018, dated 2022).
